Measured values from the CheMixHub drug solubility set.

Assay: xn = mol fraction of the nth substance listed, in the solute-free solvent

Nc1nc2ccc(OC(F)(F)F)cc2s1 + CCCO + O
solubility (g/100 g solution)
Conditions	278.15 K	283.15 K	288.15 K	293.15 K	298.15 K	303.15 K	308.15 K	313.15 K	318.15 K	323.15 K
x2 = 0.1138	11.3	12.7	13.8	14.7	15.4	16.1	16.7	17.1	17.7	18.2
x2 = 0.1666	19.6	21.1	22.3	23.1	24	24.9	25.7	26.4	27.5	28.6
x2 = 0.2306	33.4	34.7	35.8	37.2	38.1	39.2	40.1	40.9	41.9	42.8
x2 = 0.3103	39.9	40.9	42.4	43.4	45	46.2	47.9	49.2	50.6	52.4
x2 = 0.4116	53.3	56.1	58.5	60.7	63	64.6	66.3	67.6	68.7	69.7
x2 = 0.5454	54.6	56.3	57.9	59.9	61.7	63.6	65.3	66.6	67.9	68.7
x2 = 0.7292	48.8	50.6	52.6	54.6	56.6	58.2	60.2	61.6	63.1	64

CCOc1ccccc1C(N)=O + CCO + CC#N
solubility (g/100 g solution)
Conditions	x2 = 0.1	x2 = 0.2	x2 = 0.3	x2 = 0.4	x2 = 0.5	x2 = 0.6	x2 = 0.7	x2 = 0.8	x2 = 0.9
293.15 K	3.67	4.64	5.5	6.13	6.78	6.6	6.09	5.58	4.95
298.15 K	4.87	5.98	7.15	7.99	8.56	8.45	7.95	7.21	6.29
303.15 K	6.28	7.75	8.84	9.86	10.4	10.1	9.58	8.65	7.54
308.15 K	8.19	9.9	11.3	12.4	13.1	13	12.2	11	9.7
313.15 K	10.5	12.4	14.4	15.7	16.2	16	15	13.7	11.8
318.15 K	13.3	15.6	17.7	19.2	19.9	19.5	18.3	16.5	14.7

COC(=O)C(N)CS.Cl (configuration not stated) + CCO + ClCCl
solubility (g/100 g solution)
Conditions	x2 = 0.05	x2 = 0.1	x2 = 0.2	x2 = 0.3	x2 = 0.4	x2 = 0.5	x2 = 0.6	x2 = 0.7	x2 = 0.8	x2 = 0.9
283.15 K	0.323	0.991	1.88	2.62	3.2	3.86	4.64	5.33	6.02	6.92
288.15 K	0.362	1.02	2.21	3.14	3.93	4.46	5.07	5.91	6.77	7.59
293.15 K	0.393	1.21	2.46	3.54	4.26	5.23	5.88	6.62	7.47	8.49
298.15 K	0.43	1.4	2.7	4.09	4.98	5.89	6.66	7.51	8.75	9.98
303.15 K	0.493	1.42	3.03	4.65	5.72	6.77	7.79	8.77	10.3	11.9

CC1CCC2C(C)C(OC(=O)CCC(=O)O)OC3OC4(C)CCC1C32OO4 (configuration not stated) + CCO + O
solubility (g/100 g solution)
Conditions	278.15 K	283.15 K	288.15 K	293.15 K	298.15 K	303.15 K	308.15 K	313.15 K	318.15 K
x2 = 0.04179	0.113	0.146	0.183	0.23	0.279	0.348	0.427	0.517	0.627
x2 = 0.08949	0.369	0.462	0.563	0.69	0.817	0.994	1.19	1.41	1.66
x2 = 0.1436	0.816	0.995	1.19	1.43	1.66	1.97	2.32	2.69	3.12
x2 = 0.2067	1.38	1.65	1.94	2.29	2.62	3.07	3.55	4.06	4.64
x2 = 0.2813	1.97	2.33	2.69	3.13	3.56	4.1	4.66	5.26	5.94
x2 = 0.3699	2.54	2.92	3.37	3.87	4.36	4.95	5.59	6.25	6.96
x2 = 0.4771	3.08	3.48	3.92	4.47	5.03	5.67	6.34	7.03	7.74
x2 = 0.6102	3.61	4.02	4.51	5.11	5.67	6.29	6.98	7.63	8.37
x2 = 0.7797	4.05	4.46	4.95	5.55	6.12	6.72	7.39	8.06	8.72

CCOC(=O)OC1=C(c2cc(C)ccc2C)C(=O)NC12CCC(OC)CC2 (configuration not stated) + CCO + O
solubility (g/100 g solution)
Conditions	278.15 K	283.15 K	288.15 K	293.15 K	298.15 K	303.15 K	308.15 K	313.15 K	318.15 K
x2 = 0.2	0.0705	0.151	0.226	0.365	0.51	0.748	1.02	1.33	1.82
x2 = 0.4	1.44	1.85	2.31	2.96	3.91	5.06	6.59	8.52	11.1
x2 = 0.6	2.83	3.59	4.57	5.78	7.18	9.11	11.5	14.3	17.8
x2 = 0.8	3.14	3.95	4.97	6.19	7.77	9.63	12	15	18.7

Cc1nc2n(c(=O)c1CCN1CCC(c3noc4cc(F)ccc34)CC1)CCCC2 + CCO + O
solubility (g/100 g solution)
Conditions	278.15 K	283.15 K	288.15 K	293.15 K	298.15 K	303.15 K	308.15 K	313.15 K
x2 = 0.1436	0.173	0.214	0.262	0.329	0.397	0.487	0.592	0.73
x2 = 0.2069	0.628	0.744	0.919	1.1	1.4	1.68	2.06	2.58
x2 = 0.2812	1.72	2.03	2.47	2.94	3.58	4.32	5.34	6.64
x2 = 0.3627	3.31	3.98	4.66	5.53	6.67	8.06	9.77	12
x2 = 0.4768	4.74	5.58	6.59	7.76	9.19	11	13.2	15.9
x2 = 0.6101	4.86	5.65	6.62	7.77	9.18	10.8	12.9	15.2
x2 = 0.779	3.01	3.56	4.18	4.97	5.91	7.06	8.5	10.1

Nc1nc2ccc(OC(F)(F)F)cc2s1 + CCO + O
solubility (g/100 g solution)
Conditions	278.15 K	283.15 K	288.15 K	293.15 K	298.15 K	303.15 K	308.15 K	313.15 K	318.15 K	323.15 K
x2 = 0.2068	16	19.7	23.8	26.5	32.5	38.3	43.3	47.4	51.7	55.5
x2 = 0.2812	31.4	35.5	39.9	43.9	48.1	52.1	56.1	59.6	62.5	64.8
x2 = 0.3697	56.3	58.7	60.7	63.2	65.5	67.8	69.7	70.9	72.7	74
x2 = 0.4772	50.7	53.3	55.4	58.1	60.6	63.6	66	68	69.9	71.4
x2 = 0.6099	53.2	55.1	57.4	59.7	61.7	63.6	65.3	67	68.6	69.9
x2 = 0.7786	52.6	54.4	57.2	59	61.3	63.1	64.9	66.7	68.2	70
